Experimental data from US20240165261A1, “MEANS AND METHOD FOR CYTOSOLIC DELIVERY” (Universiteit Gent, priority 2021, published 2024).

Tested on: primary human T cells
Test: FD10 delivery in primary human T cells by flow cytometry
Type: cell-based
Conditions: human T cells with dex-NG and FD10, ROS scavenger added (FIG. 12a)
Procedure: FIG. 8. […] Human T cells were isolated from peripheral blood mononuclear cells and expanded for several weeks. […] As a control, cells were treated with nucleofection (program E0-115, Lonza Nucleofector, white bars) (a) Quantitative analysis of FD10 delivery efficiency using flow cytometry. Cells were stained with a membrane exclusion dye (TO-PRO-3 iodide) staining dead cells. TO-PRO-3 iodide negative cells were gated for delivery efficiency analysis. (b) Analysis of cell viability, 4 h after treatment, using an ATP-based viability assay (CellTiter-Glo®). (c-d) Quantitative analysis of FD10 delivery efficiency using flow cytometry on TO-PRO-3 iodide negative cells. The yield is determined as percentage living cells (based on CellTiter-Glo® assay), multiplied by the percentage of FD10-positive cells. Data shown as the mean±SD of three independent experiments (n=3). Statistical significance is reported where relevant (ns p≥0.05, * p<0.05, ** p≤0.01, *** p≤0.001, **** p≤0.0001).
Human T cells were seeded at 1×10^6 cells per well in a glass bottom 96-well plate (Greiner Bio-One GmbH, Vilvoorde, Belgium). […] Quantitative analysis of delivery efficiency was performed using flow cytometry on living (i.e. TO-PRO-3 negative) cells (CytoFLEX equipped with CytExpert software; Beckman Coulter, Krefeld, Germany). […]

OCCS [β-mercaptoethanol]
beneficial effect on cytosolic FD10 delivery as seen with NAC: could not be replicated
